Results on seven compounds are retold here after paper PMC12195250, “Synthesis, Biological Evaluation, Molecular Dynamics, and QM-MM Calculation of Spiro-Acridine Derivatives Against Leishmaniasis” (Microorganisms, 2025).

For data set [1], the system named is human red blood peripheral cells (O+). As to the kind of experiment: Hemocompatibility (hemolysis) in red blood cells. The format is cell-based. The conditions noted are these: 1 h at 37 °C. The method, then: The hemocompatibility of the spiro-acridine derivatives was determined using human red blood peripheral cells (O+) from healthy adults. The erythrocytes were diluted in phosphate-buffered saline (PBS) to a concentration of 5% in an 80 µL suspension and subsequently incubated with 20 µL of different concentrations of spiro-acridine derivatives and Amphotericin B® (400, 200, 100, 50, 25, 12,5, 6,25 and 3,12 μg/mL). Afterward, the samples were incubated for 1 h at 37 °C in a B.O.D incubator, and the reaction was stopped by adding 200 μL of PBS (1.5 mM KH2PO4, 8.1 mM Na2HPO4, 136.9 mM NaCl, and 2.6 mM KCl, pH 7.2). The samples were centrifuged at 2000 rpm for 10 min, at room temperature. The supernatants were collected and subjected to spectrophotometry using a spectrophotometer (model Biosystems ELx800, Curitiba, PR, Brazil) at 540 nm. The hemolysis percentage was determined as [(Abssam − Abscon)/(Abstot − Abscon) × 100], where Abssam refers to the absorbance of the sample, Abscon to the absorbance of the blank control (without compounds), and Abstot to the absorbance of total hemolysis (obtained by replacing the sample solution with an equal volume of Milli-Q water). The results were expressed as average hemolytic concentration (HC50), considering the positive control as 100% hemolysis.

Data set [2] relates to L. infantum promastigotes (Strain MHOM/BR/70/BH46). As to the kind of experiment: Anti-promastigote effect, Neubauer chamber counting. The format is cell-based, Leishmania infantum. The conditions noted are these: 72 h incubation, read-out: L. infantum IC50PRO. The method, then: (§1) The promastigote cultures of L. infantum (Strain MHOM/BR/70/BH46) and L. amazonensis (Strain MHOM/BR/PH8) were kept in Schneider medium (Sigma-Aldrich, St. Louis, MO, USA) supplemented with 20% fetal bovine serum (FBS) and 1% streptomycin/penicillin in a B.O.D. incubator (J. Prolab, model JP. 100 LBCM/CPAM) at 26 °C. The promastigote strains were used in the exponential growth phase in all stages for experimental purposes.
(§2) The Neubauer chamber method was used to assess the inhibitory concentrations of the synthesized spiro-acridines capable of eliminating 50% of the promastigotes in cultures of L. amazonensis and L. infantum (IC50) strains. Promastigotes from both species were collected, counted, and diluted in Schneider’s medium (Sigma-Aldrich, St. Louis, MO, USA) supplemented with 20% fetal bovine serum (FBS) at a final concentration of 1 × 10^6 cells/mL. The evaluated promastigotes were then exposed to different concentrations of the tested compounds (10, 5, 2.5, 1.25, and 0.625 μg/mL). The positive control used the commercial drug Amphotericin B®, while the negative control consisted of promastigotes incubated in Schneider’s medium alone. After 72 h of incubation at 25 °C, culture growth was observed by counting the viable cells using a Neubauer chamber and calculated using the following Equation (1): No. Leishmania/mL = No. of cells counted × No. of Neubauer chamber(1) quadrants × the dilution used × 10^4 (Neubauer chamber correction factor)
(§3) The concentration parameter that inhibits 50% of parasite growth (IC50) was used to estimate the growth inhibition of the promastigote species of Leishmania sp. Thus, IC50 was determined by linear regression analysis with SPSS 8.0 software for Windows. Each test was performed in two independent experiments, with different cultures and in technical triplicate.

Data set [3] concerns L. amazonensis promastigotes (Strain MHOM/BR/PH8). The data set is described as above. The conditions noted are these: 72 h incubation, read-out: L. amazonensis IC50PRO. The format is cell-based, Leishmania amazonensis. The protocol:
as §1, §2, §3

In data set [4] the test system is L. infantum promastigote forms. Details: method as in PMID 34311084. The conditions noted are these: cited from earlier work.
The subject of data set [5] is L. amazonensis axenic amastigotes. The experiment in a line: Anti-amastigote effect on axenic amastigotes, MTT. It is filed as cell-based, Leishmania amazonensis. The method, then:
The amastigote forms of L. amazonensis were maintained under cryopreservation until they were transferred to an NNN medium (Novy–MacNeal–Nicolle) and incubated at 26 °C until the parasites reached the log growth phase. Subsequently, the suspension was transferred to Schneider culture medium (Sigma-Aldrich, St. Louis, MO, USA), supplemented with 20% inactivated fetal bovine serum and 0.2% gentamicin sulfate at 26 °C, causing the parasites to return to the log growth phase. The cultures were then maintained at 37 °C, producing a growth curve and the formation of the axenic amastigote strains.
The concentrations of the compounds AMTAC-02 and ACMD-03 capable of eliminating 50% of the cells in the cultures of L. amazonensis amastigotes (IC50) were determined using the MTT [3-(4,5-dimethylthiazol-2-yl)-2,5-diphenyltetrazolium bromide] (Sigma-Aldrich) reagent. In a 96-well plate, the assay was initiated by diluting both compounds to concentrations of 2, 4, 8, 16, and 32 μg/mL and 2.0 × 10^5 axenic amastigotes per well. The plates were incubated at 37 °C for 24 h. Then, 10 μL of MTT was added per well, and the cultures were re-incubated for 4 h. Subsequently, 50 μL of dimethyl sulfoxide was added to each well to solubilize the formazan crystals formed. The absorbances were measured using a SpectraMAX GeminiXS plate spectrophotometer (Molecular Devices LLC) at a wavelength of 570 nm. The negative control consisted of untreated cells, while the positive control was assessed by incubating the axenic amastigotes with the reference drug Amphotericin B® [13].

A short description of data set [6]: Cytotoxic effect in J774 macrophage cultures, MTT. The format is cell-based. The conditions noted are these: mouse, J774A.1 macrophages, read-out: CC50 (50% cytotoxic concentration in J774 macrophage). The method, then:
J774A.1 macrophages (ATCC TIB-67) were kept cryopreserved in a Falcon tube containing 5 mL of DMEM (Dulbecco’s modified Eagle medium) culture medium (Gibco®), supplemented with 10% inactivated fetal bovine serum, 1% non-essential amino acids, and 1% gentamicin sulfate. The tube was centrifuged at 200 rpm for 10 min. Afterward, the supernatant was discarded, and the cells were resuspended in the culture medium and transferred to a culture bottle kept in an incubator at 37 °C with 5% CO2. The assays were carried out in triplicate using a 96-well plate to evaluate the cytotoxic effect of the selected spiro-acridine compounds on J774 macrophage cultures. The compounds were diluted and seeded at predetermined concentrations (32, 16, 8, 4, and 2 μg/mL), parallel to the distribution of 1.0 × 10^5 J774 macrophages per well. The plate was incubated for two hours in a 5% CO2 incubator at 37 °C. Only the cells were incubated in the negative control without the tested molecules. In contrast, the positive control was performed by incubating the macrophages with the commercial drug Amphotericin B®. Later, 10 μL of the MTT reagent was added per well, and the cultures were re-incubated for 4 h. Finally, 50 μL of DMSO was added to each well, and the absorbance was read on a SpectraMAX GeminiXS plate spectrophotometer (Molecular Devices LLC, San Jose, CA, USA) at a wavelength of 570 nm. […]

Data set [7] deals with L. amazonensis promastigotes. Also noted: method as in PMID 33765552. The conditions noted are these: cited from earlier work.
Data set [8] relates to L. brasiliensis promastigotes. Details: method as in PMID 33168414. The conditions noted are these: cited from earlier work.
For data set [9], the system named is L. brasiliensis axenic amastigotes. Also noted: method as in PMID 33168414. The conditions noted are these: cited from earlier work.

In brackets after ≈: the same amount, converted by molar mass. Where two headings read alike, the source gives them in different places.

For the compound `N#CC1=CC2(c3ccccc3Nc3ccccc32)N(c2ccccc2)C1=O` [ACMD-01, (E)5′-oxo-1′-phenyl-1′, 5′-dihydro-10H-spiro{acridine-9,2′-pyrrole]-4′-carbonitrile], the “HC50 (concentration capable of promoting 50% hemolysis)” value in [1] is above 400 µM. Moreover, the IC50 in data set [2] (Leishmania infantum) came to 3.9 µM.
For the compound `COc1ccc(N2C(=O)C(C#N)=CC23c2ccccc2Nc2ccccc23)cc1` [ACMD-06, (E)1′-(4-methoxyphenyl)-5′-oxo-1′, 5′-dihydro-10H-spiro{acridine-9,2′-pyrrole]-4′-carbonitrile], in data set [1], the “HC50 (concentration capable of promoting 50% hemolysis)” value is listed as above 400 µM. Further, the IC50 was 235 µM in [3] and 3.5 µM in data set [2].
Regarding `N#CC1=CC2(c3ccccc3Nc3ccccc32)N(/N=C/c2ccccc2)C1=O` [AMTAC-01, (E)-1′-(benzylideneamino)-5′-oxo-1′,5′-dihydro-10H-spiro[acridine-9,2′-pyrrole]-4′-carbonitrile], the “IC50 against the promastigote forms” value in [4] is 2.039 µg/mL (≈ 5.42 µM). In addition, the “HC50 (concentration capable of promoting 50% hemolysis)” value in data set [1] is given as above 400 µM. The IC50 in data set [3] (Leishmania amazonensis) was found to be 1.23 µM; in data set [2] (Leishmania infantum), 6.27 µM.
On to `N#CC1=CC2(c3ccccc3Nc3ccccc32)N(/N=C/c2ccc(Cl)cc2)C1=O` [AMTAC-06, (E)1-(4-chlorobenzylideneamino)-5-oxo-1,5-dihydro-10H-spiro[acridine-9,2-pyrrole]-4-carbonitrile], for which the “HC50 (concentration capable of promoting 50% hemolysis)” value in data set [1] was above 400 µM. For the same compound, the IC50 in data set [3] amounted to 0.75 µM; in [2], 13.8 µM.
In the case of `C[C@@H]1[C@H](O)[C@@H](C)/C=C/C=C/C=C/C=C/C=C/C=C/C=C/[C@H](O[C@@H]2O[C@H](C)[C@@H](O)[C@H](N)[C@@H]2O)C[C@@H]2O[C@](O)(C[C@@H](O)C[C@@H](O)[C@H](O)CC[C@@H](O)C[C@@H](O)CC(=O)O[C@H]1C)C[C@H](O)[C@H]2C(=O)O` [ANFO B, Amphotericin B, reference compound], the “HC50 (concentration capable of promoting 50% hemolysis)” value in data set [1] is listed as 24.25 µM. The IC50 worked out at 1.53 µM in [3] (Leishmania amazonensis); 0.05 µM in data set [2] (Leishmania infantum); 1.08 µM in [5] (Leishmania amazonensis, 24 h, L. amazonensis axenic amastigotes, MTT). For the same compound, in [5] (J774 macrophage CC50 versus L. amazonensis axenic amastigote IC50AMA), the “SI (selectivity index)” value stood at 2.8. Besides, in [6], the CC50 at 2 h was determined as 3.09 µM.
As to `CC1=CC(=O)[C@H]2C(C)(C)CCC[C@]2(C)[C@@]1(O)CCc1ccoc1` [SOL, solidagenone], the IC50 in data set [7] is 34.5 µM.
On to cordiaquinone E [CORe], for which the values for the IC50 in data set [8] and in [9] were 4.5 ± 0.3 µM and 2.89 ± 0.11 µM, respectively.
